{"source": "patent US11919902B2", "about": "“Aryl-bipyridine amine derivatives as phosphatidylinositol phosphate kinase inhibitors” (HiberCell, Inc., priority 2017, dated 2024)", "biological_target": "T1, PIP4K2A (full length protein, SignalChem) (Homo sapiens, UniProt P48426)", "T1 construct": "4 nM PIP4K2A (full length protein, SignalChem); purchased SignalChem", "T1 sequence (P48426 1-406)": "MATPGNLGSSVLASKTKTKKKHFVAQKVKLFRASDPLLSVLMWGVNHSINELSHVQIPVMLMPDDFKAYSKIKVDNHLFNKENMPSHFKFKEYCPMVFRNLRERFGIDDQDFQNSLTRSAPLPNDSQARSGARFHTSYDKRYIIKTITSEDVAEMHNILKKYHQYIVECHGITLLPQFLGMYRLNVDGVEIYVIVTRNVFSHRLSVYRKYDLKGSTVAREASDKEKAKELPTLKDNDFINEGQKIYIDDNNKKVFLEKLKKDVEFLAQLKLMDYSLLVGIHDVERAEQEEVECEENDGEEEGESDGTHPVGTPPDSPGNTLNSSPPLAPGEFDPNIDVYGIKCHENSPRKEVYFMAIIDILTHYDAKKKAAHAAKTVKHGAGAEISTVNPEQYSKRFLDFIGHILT", "experiment": "Kinase Assay PIP4K2 A (Sprint); ADP-Glo biochemical assay", "settings": "Table 2; compounds listed under IC50 range headings", "method": "Dilution series of the compounds were prepared in DMSO at 100 times the final assay concentration (n1=n0/3 in 10 points). The compounds were further diluted to three times the assay concentration in assay buffer (20 mM MOPS pH 7.2, 25 mM magnesium chloride, 0.005% Tween 20). 6 μL of the diluted compounds were added to a 384 well assay plate followed by 9 μL of a mix consisting of 4 nM PIP4K2A (full length protein, SignalChem) and 100 μM PI(5)P diC8 (Tebu-Bio). Enzyme and compounds were pre-incubated at room temperature for 15 min.\nThen 3 μL of a solution containing 60 μM ATP (Promega) in assay buffer was added to the wells containing compound and enzyme and mixing was performed by pipetting several times. The reaction was incubated at room temperature for 1 h. Then 18 μL of ADP-Glo™ Reagent (Promega) was added to stop the kinase reaction and deplete the unconsumed ATP, mixing was performed by pipetting several times. The plate was incubated at room temperature for 40 min before addition of 36 μL of Kinase Detection Reagent (Promega) to convert ADP to ATP and introduce luciferase and luciferin to detect ATP. The reaction was incubated at room temperature for 40 min before the luminescence was measured in a in a Victor 3V 1420 multilabel counter (Perkin Elmer).\nPercent inhibition of the compounds as compared to dimethyl sulfoxide treated control samples was calculated. Compound concentration versus percent inhibition were fitted to generate IC50 values.", "note": "pIC50: −log10 of the molar value.", "data": [{"smiles": "CN(C)C(=O)c1ccc(-c2cncc(-c3cncc(-c4ccnc5[nH]ccc45)c3)c2)cc1", "note": "[Example 3, 4-(5′-(H-pyrrolo[2,3-b]pyridin-4-yl)-[3,3′-bipyridin]-5-yl)-N,N-dimethylbenzamide]", "values": [{"measurement": "pIC50", "result": "6.00 to 7.00"}]}, {"smiles": "CN(C)C(=O)c1ccc(-c2cncc(-c3ccnc(C(C)(C)O)c3)c2)cc1", "note": "[Example 8, 4-(2′-(2-hydroxypropan-2-yl)-[3,4′-bipyridin]-5-yl)-N,N-dimethylbenzamide]", "values": [{"measurement": "pIC50", "result": "5.60 to 6.00"}]}, {"smiles": "CN(C)C(=O)c1ccc(-c2cc(-c3ccncc3)cnc2N)cc1", "note": "[Example 16, 4-(6-amino-[3,4′-bipyridin]-5-yl)-N,N-dimethylbenzamide]", "values": [{"measurement": "pIC50", "result": "> 5.30"}]}, {"smiles": "CN(C)C(=O)c1ccc(-c2cc(-c3ccc(=O)[nH]c3)cnc2N)cc1", "note": "[Example 17, 4-(6-amino-6′-oxo-1′,6′-dihydro-[3,3′-bipyridin]-5-yl)-N,N-dimethylbenzamide]", "values": [{"measurement": "pIC50", "result": "> 5.30"}]}, {"smiles": "CN(C)C(=O)c1ccc(-c2cc(C3=CCOCC3)cnc2N)cc1", "note": "[Example 18, 4-(2-amino-5-(3,6-dihydro-2H-pyran-4-yl)pyridin-3-yl)-N,N-dimethylbenzamide]", "values": [{"measurement": "pIC50", "result": "> 5.30"}]}, {"smiles": "CN(C)C(=O)c1ccc(-c2cc(-c3ccncc3)cnc2N)nc1", "note": "[Example 19, 2′-amino-N,N-dimethyl-[2,3′:5′,4″-terpyridine]-5-carboxamide]", "values": [{"measurement": "pIC50", "result": "6.00 to 7.00"}]}, {"smiles": "Cc1c(-c2ccncc2)cncc1-c1ccc(N2CCCC2=O)cc1", "note": "[Example 82, 1-(4-(4-methyl-[3,4′-bipyridin]-5-yl)phenyl)pyrrolidin-2-one]", "values": [{"measurement": "pIC50", "result": "6.00 to 7.00"}]}, {"smiles": "Nc1ncc(-c2ccnc3oc(C(=O)NC4COC4)cc23)cc1-c1ccc(N2CCCC2=O)cc1", "note": "[Example 93, 4-(6-amino-5-(4-(2-oxopyrrolidin-1-yl)phenyl)pyridin-3-yl)-N-(oxetan-3-yl)furo[2,3-b]pyridine-2-carboxamide]", "values": [{"measurement": "pIC50", "result": "7.00 to 8.30"}]}, {"smiles": "COC(=O)c1cc2c(-c3cnc(N)c(-c4ccc(N5CCCC5=O)cc4)c3)ccnc2[nH]1", "note": "[Example 94, methyl 4-(6-amino-5-(4-(2-oxopyrrolidin-1-yl)phenyl)pyridin-3-yl)-1H-pyrrolo[2,3-b]pyridine-2-carboxylate]", "values": [{"measurement": "pIC50", "result": "6.00 to 7.00"}]}, {"smiles": "Nc1ncc(-c2ccnc3c2CNC3=O)cc1-c1ccc(N2CCCC2=O)cc1", "note": "[Example 95, 4-(6-amino-5-(4-(2-oxopyrrolidin-1-yl)phenyl)pyridin-3-yl)-5,6-dihydro-7H-pyrrolo[3,4-b]pyridin-7-one]", "values": [{"measurement": "pIC50", "result": "8.30 to 9.00"}]}, {"smiles": "CN(C)C(=O)c1ccc(-c2cc(-c3ccnc4ccc(C#N)cc34)cnc2N)nc1", "note": "[Example 100, 2′-Amino-5′-(6-cyanoquinolin-4-yl)-N,N-dimethyl-[2,3′-bipyridine]-5-carboxamide]", "values": [{"measurement": "pIC50", "result": "6.00 to 7.00"}]}, {"smiles": "CN(C)C(=O)c1ccc(-c2cc(-c3ccnc(C(C)(C)O)c3)cnc2N)nc1", "note": "[Example 101, 2′-Amino-2″-(2-hydroxypropan-2-yl)-N,N-dimethyl-[2,3′:5′,4″-terpyridine]-5-carboxamide]", "values": [{"measurement": "pIC50", "result": "5.60 to 6.00"}]}, {"smiles": "CN(C)C(=O)c1ccc(-c2cc(-c3ccnc(C(C)(C)C#N)c3)cnc2N)nc1", "note": "[Example 102, 2′-Amino-2″-(2-cyanopropan-2-yl)-N,N-dimethyl-[2,3′:5′,4″-terpyridine]-5-carboxamide]", "values": [{"measurement": "pIC50", "result": "5.60 to 6.00"}]}, {"smiles": "CN(C)C(=O)c1ccc(-c2cc(-c3ccnc(C4(C#N)CC4)c3)cnc2N)nc1", "note": "[Example 103, 2′-amino-2″-(1-cyanocyclopropyl)-N,N-dimethyl-[2,3′:5′,4″-terpyridine]-5-carboxamide]", "values": [{"measurement": "pIC50", "result": "6.00 to 7.00"}]}, {"smiles": "CN(C)C(=O)c1ccc(-c2cc(-c3ccnc4occc34)cnc2N)nc1", "note": "[Example 104, 2′-amino-5′-(furo[2,3-b]pyridin-4-yl)-N,N-dimethyl-[2,3′-bipyridine]-5-carboxamide]", "values": [{"measurement": "pIC50", "result": "6.00 to 7.00"}]}, {"smiles": "CN(C)C(=O)c1ccc(-c2cc(-c3ccnc4c3ccn4C)cnc2N)nc1", "note": "[Example 105, 2′-amino-N,N-dimethyl-5′-(1-methyl-1H-pyrrolo[2,3-b]pyridin-4-yl)-[2,3′-bipyridine]-5-carboxamide]", "values": [{"measurement": "pIC50", "result": "6.00 to 7.00"}]}, {"smiles": "CN(C)C(=O)c1ccc(-c2cc(-c3ccnc(C(C)(C)C)c3)cnc2N)nc1", "note": "[Example 106, 2′-amino-2″-(tert-butyl)-N,N-dimethyl-[2,3′:5′,4″-terpyridine]-5-carboxamide]", "values": [{"measurement": "pIC50", "result": "5.60 to 6.00"}]}, {"smiles": "CN(C)C(=O)c1ccc(-c2cc(-c3ccnc(C#N)c3)cnc2N)nc1", "note": "[Example 107, 2′-amino-2″-cyano-N,N-dimethyl-[2,3′:5′,4″-terpyridine]-5-carboxamide]", "values": [{"measurement": "pIC50", "result": "5.60 to 6.00"}]}, {"smiles": "CN(C)C(=O)c1ccc(-c2cc(-c3ccnnc3)cnc2N)nc1", "note": "[Example 108, 2′-amino-N,N-dimethyl-5′-(pyridazin-4-yl)-[2,3′-bipyridine]-5-carboxamide]", "values": [{"measurement": "pIC50", "result": "5.30 to 5.60"}]}, {"smiles": "CN(C)C(=O)c1ccc(-c2cc(-c3ccnc4ccncc34)cnc2N)nc1", "note": "[Example 112, 2′-amino-N,N-dimethyl-5′-(1,6-naphthyridin-4-yl)-[2,3′-bipyridine]-5-carboxamide]", "values": [{"measurement": "pIC50", "result": "5.60 to 6.00"}]}, {"smiles": "CN(C)C(=O)c1ccc(-c2cc(-c3cccnc3)cnc2N)nc1", "note": "[Example 119, 2′-amino-N,N-dimethyl-[2,3′:5′,3″-terpyridine]-5-carboxamide]", "values": [{"measurement": "pIC50", "result": "> 5.30"}]}, {"smiles": "Cn1cc(-c2cncc(-c3ccc(N4CCCC4=O)cc3)c2)c2cc(C(C)(C)O)cnc21", "note": "[Example 154, 1-(4-(5-(5-(2-hydroxypropan-2-yl)-1-methyl-1H-pyrrolo[2,3-b]pyridin-3-yl)pyridin-3-yl)phenyl)pyrrolidin-2-one]", "values": [{"measurement": "pIC50", "result": "> 5.30"}]}, {"smiles": "COC(C)(C)c1cnc2c(c1)c(-c1cncc(-c3ccc(N4CCCC4=O)cc3)c1)cn2C", "note": "[Example 155, 1-(4-(5-(5-(2-methoxypropan-2-yl)-1-methyl-1H-pyrrolo[2,3-b]pyridin-3-yl)pyridin-3-yl)phenyl)pyrrolidin-2-one]", "values": [{"measurement": "pIC50", "result": "> 5.30"}]}, {"smiles": "COc1ncc(-c2cncc(-c3ccc(N4CCCC4=O)cc3)c2)c2cnn(C)c12", "note": "[Example 156, 1-(4-(5-(7-methoxy-1-methyl-1H-pyrazolo[3,4-c]pyridin-4-yl)pyridin-3-yl)phenyl)pyrrolidin-2-one]", "values": [{"measurement": "pIC50", "result": "> 5.30"}]}, {"smiles": "CN(C)C/C=C/C(=O)Nc1ccc(C(=O)NCc2cc(-c3cnc(N)c(-c4ccc(C(=O)N(C)C)cn4)c3)ccn2)cc1", "note": "[Example 189, (E)-2′-amino-2″-((4-(4-(dimethylamino)but-2-enamido)benzamido)methyl)-N,N-dimethyl-[2,3′:5′,4″-terpyridine]-5-carboxamide]", "values": [{"measurement": "pIC50", "result": "5.60 to 6.00"}]}, {"smiles": "CN(C)C/C=C/C(=O)Nc1cccc(C(=O)NCc2cc(-c3cnc(N)c(-c4ccc(C(=O)N(C)C)cn4)c3)ccn2)c1", "note": "[Example 192, (E)-2′-amino-2″-((3-(4-(dimethylamino)but-2-enamido)benzamido)methyl)-N,N-dimethyl-[2,3′:5′,4″-terpyridine]-5-carboxamide]", "values": [{"measurement": "pIC50", "result": "5.60 to 6.00"}]}, {"smiles": "CN(C)C(=O)c1ccc(-c2cc(-c3ccnc4[nH]ncc34)cnc2N)nc1", "note": "[Example 212, 2′-amino-N,N-dimethyl-5′-(2H-pyrazolo[3,4-b]pyridin-4-yl)-[2,3′-bipyridine]-5-carboxamide]", "values": [{"measurement": "pIC50", "result": "7.00 to 8.30"}]}, {"smiles": "O=C1CCCN1c1ccc(-c2cncc(-c3c4n(c5ncccc35)CCC4)c2)cc1", "note": "[Example 299, 1-(4-(5-(7,8-dihydro-6H-pyrido[3,2-b]pyrrolizin-5-yl)pyridin-3-yl)phenyl)pyrrolidin-2-one]", "values": [{"measurement": "pIC50", "result": "7.00 to 8.30"}]}]}
